In patent US20260028365A1 (BIOGEN MA INC., priority 2022, published 2026):

Assays:
JH2 domain of human Tyk2 = JH2 domain of human Tyk2 (Homo sapiens (Human), UniProt P29597); assay: JH2 Biochemical Assay (TR-FRET probe displacement); format: binding; conditions: TR-FRET probe displacement, JH2 domain of human Tyk2
Tyk2 = Tyk2 (Homo sapiens (Human), UniProt P29597); assay: pSTAT4 Cell Assay (MSD, NK92 cells); format: cell-based; conditions: MSD
Chain of Tyk2 (P29597 whole entry): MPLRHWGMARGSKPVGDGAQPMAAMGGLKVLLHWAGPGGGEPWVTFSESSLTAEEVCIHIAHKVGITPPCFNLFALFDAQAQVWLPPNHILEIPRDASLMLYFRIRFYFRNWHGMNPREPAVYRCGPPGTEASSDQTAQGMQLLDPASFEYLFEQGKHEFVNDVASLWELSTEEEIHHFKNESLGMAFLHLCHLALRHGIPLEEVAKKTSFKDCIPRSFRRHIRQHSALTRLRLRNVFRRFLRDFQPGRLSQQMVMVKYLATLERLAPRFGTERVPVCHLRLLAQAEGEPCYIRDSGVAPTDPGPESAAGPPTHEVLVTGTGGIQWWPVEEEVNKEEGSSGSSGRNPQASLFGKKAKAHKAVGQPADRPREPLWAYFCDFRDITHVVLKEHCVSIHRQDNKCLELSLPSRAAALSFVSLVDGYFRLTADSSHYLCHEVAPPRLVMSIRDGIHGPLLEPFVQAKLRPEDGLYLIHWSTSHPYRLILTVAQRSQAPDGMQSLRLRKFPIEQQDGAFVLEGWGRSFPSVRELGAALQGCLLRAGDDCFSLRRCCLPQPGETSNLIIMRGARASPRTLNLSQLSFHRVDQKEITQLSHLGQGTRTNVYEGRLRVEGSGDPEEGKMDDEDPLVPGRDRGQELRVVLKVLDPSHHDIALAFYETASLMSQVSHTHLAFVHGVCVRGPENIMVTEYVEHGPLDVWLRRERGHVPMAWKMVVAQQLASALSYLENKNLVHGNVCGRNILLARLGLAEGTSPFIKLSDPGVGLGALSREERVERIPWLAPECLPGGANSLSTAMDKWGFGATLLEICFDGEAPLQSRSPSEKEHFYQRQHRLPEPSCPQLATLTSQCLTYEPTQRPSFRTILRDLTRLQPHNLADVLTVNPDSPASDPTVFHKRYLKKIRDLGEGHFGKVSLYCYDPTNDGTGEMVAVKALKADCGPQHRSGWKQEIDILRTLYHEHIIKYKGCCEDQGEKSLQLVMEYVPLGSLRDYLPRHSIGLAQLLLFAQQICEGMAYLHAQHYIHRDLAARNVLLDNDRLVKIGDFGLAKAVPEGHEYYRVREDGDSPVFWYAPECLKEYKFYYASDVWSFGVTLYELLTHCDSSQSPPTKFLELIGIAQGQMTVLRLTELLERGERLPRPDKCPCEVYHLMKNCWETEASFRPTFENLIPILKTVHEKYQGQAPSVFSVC

Chain of JH2 domain of human Tyk2 (P29597 575-876): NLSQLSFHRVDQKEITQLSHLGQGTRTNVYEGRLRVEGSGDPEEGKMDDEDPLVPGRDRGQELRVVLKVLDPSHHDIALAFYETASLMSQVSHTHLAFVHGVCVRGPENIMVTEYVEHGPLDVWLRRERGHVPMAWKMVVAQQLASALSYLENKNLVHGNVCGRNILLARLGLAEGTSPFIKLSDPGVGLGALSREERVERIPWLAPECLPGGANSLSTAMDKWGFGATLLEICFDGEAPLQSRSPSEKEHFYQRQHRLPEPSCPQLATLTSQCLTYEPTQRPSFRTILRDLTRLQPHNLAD

| Structure (SMILES) | IC50 (JH2 domain of human Tyk2) [µM] | IC50 (Tyk2) [µM] |
| --- | --- | --- |
| COCC1(COc2cnc(NC(C)=O)cc2Nc2cc(C)nc(C(C)(F)F)n2)CC1 [Example 326, N-(4-((2-(1,1-difluoroethyl)-6-methylpyrimidin-4-yl)amino)-5-((1-(methoxymethyl)cyclopropyl)methoxy)pyridin-2-yl)acetamide] | ≤ 0.01 | 0.01 to 0.1 |
| CCc1cnc(COc2cnc(NC(C)=O)cc2Nc2cc(C)nc(C(C)(F)F)n2)o1 [Example 327, N-(4-((2-(1,1-difluoroethyl)-6-methylpyrimidin-4-yl)amino)-5-((5-ethyloxazol-2-yl)methoxy)pyridin-2-yl)acetamide] | ≤ 0.01 | 0.01 to 0.1 |
| CC(=O)Nc1cc(Nc2cc(C)nc(C(C)(F)F)n2)c(OCCc2cccnc2F)cn1 [Example 328, N-(4-((2-(1,1-difluoroethyl)-6-methylpyrimidin-4-yl)amino)-5-(2-(2-fluoropyridin-3-yl)ethoxy)pyridin-2-yl)acetamide] | ≤ 0.01 | ≤ 0.01 |
| CC(=O)Nc1cc(Nc2cc(C)nc(C(C)(F)F)n2)c(OCc2c(C)ncnc2C)cn1 [Example 330, N-(4-((2-(1,1-difluoroethyl)-6-methylpyrimidin-4-yl)amino)-5-((4,6-dimethylpyrimidin-5-yl)methoxy)pyridin-2-yl)acetamide] | 0.01 to 0.1 | ≥ 1 |
| CCc1noc(COc2cnc(NC(C)=O)cc2Nc2cc(C)nc(C(C)(F)F)n2)n1 [Example 331, N-(4-((2-(1,1-difluoroethyl)-6-methylpyrimidin-4-yl)amino)-5-((3-ethyl-1,2,4-oxadiazol-5-yl)methoxy)pyridin-2-yl)acetamide] | 0.01 to 0.1 | 0.1 to 1 |
| CC(=O)Nc1cc(Nc2cc(C)nc(C(C)(F)F)n2)c(OC[C@H]2C[C@H](F)C2)cn1 [Example 332, N-(4-((2-(1,1-difluoroethyl)-6-methylpyrimidin-4-yl)amino)-5-(((1r,3r)-3-fluorocyclobutyl)methoxy)pyridin-2-yl)acetamide] | ≤ 0.01 | 0.01 to 0.1 |
| CC(=O)Nc1cc(Nc2cc(C)nc(C(C)(F)F)n2)c(OCc2ccc(C#N)o2)cn1 [Example 333, N-(5-((5-cyanofuran-2-yl)methoxy)-4-((2-(1,1-difluoroethyl)-6-methylpyrimidin-4-yl)amino)pyridin-2-yl)acetamide] | ≤ 0.01 | 0.01 to 0.1 |
| CC(=O)Nc1cc(Nc2cc(C)nc(C(C)(F)F)n2)c(OCc2scnc2C)cn1 [Example 334, N-(4-((2-(1,1-difluoroethyl)-6-methylpyrimidin-4-yl)amino)-5-((4-methylthiazol-5-yl)methoxy)pyridin-2-yl)acetamide] | 0.01 to 0.1 | 0.1 to 1 |
| CC(=O)Nc1cc(Nc2cc(C)nc(C(C)(F)F)n2)c(OCc2conc2C)cn1 [Example 335, N-(4-((2-(1,1-difluoroethyl)-6-methylpyrimidin-4-yl)amino)-5-((3-methylisoxazol-4-yl)methoxy)pyridin-2-yl)acetamide] | ≤ 0.01 | 0.1 to 1 |
| COC1(COc2cnc(NC(C)=O)cc2Nc2cc(C)nc(C(C)(F)F)n2)CCOCC1 [Example 337, N-(4-((2-(1,1-difluoroethyl)-6-methylpyrimidin-4-yl)amino)-5-((4-methoxytetrahydro-2H-pyran-4-yl)methoxy)pyridin-2-yl)acetamide] | ≤ 0.01 | 0.01 to 0.1 |
| CC(=O)Nc1cc(Nc2cc(C)nc(C(C)(F)F)n2)c(OCc2nc(C)c(C)o2)cn1 [Example 338, N-(4-((2-(1,1-difluoroethyl)-6-methylpyrimidin-4-yl)amino)-5-((4,5-dimethyloxazol-2-yl)methoxy)pyridin-2-yl)acetamide] | ≤ 0.01 | 0.01 to 0.1 |
| CC(=O)Nc1cc(Nc2cc(C)nc(C(C)(F)F)n2)c(OCc2ncc(C)o2)cn1 [Example 341, N-(4-((2-(1,1-difluoroethyl)-6-methylpyrimidin-4-yl)amino)-5-((5-methyloxazol-2-yl)methoxy)pyridin-2-yl)acetamide] | ≤ 0.01 | 0.01 to 0.1 |
| CC(=O)Nc1cc(Nc2cc(C)nc(C(C)(F)F)n2)c(OCc2ncc(C3CC3)o2)cn1 [Example 342, N-(5-((5-cyclopropyloxazol-2-yl)methoxy)-4-((2-(1,1-difluoroethyl)-6-methylpyrimidin-4-yl)amino)pyridin-2-yl)acetamide] | ≤ 0.01 | 0.1 to 1 |
| CC(=O)Nc1cc(Nc2cc(C)nc(C(C)(F)F)n2)c(OCc2nc(C)ns2)cn1 [Example 343, N-(4-((2-(1,1-difluoroethyl)-6-methylpyrimidin-4-yl)amino)-5-((3-methyl-1,2,4-thiadiazol-5-yl)methoxy)pyridin-2-yl)acetamide] | ≤ 0.01 | 0.01 to 0.1 |
| CC(=O)Nc1cc(Nc2cc(C)nc(C(C)(F)F)n2)c(OCc2cnc(C3CC3)o2)cn1 [Example 344, N-(5-((2-cyclopropyloxazol-5-yl)methoxy)-4-((2-(1,1-difluoroethyl)-6-methylpyrimidin-4-yl)amino)pyridin-2-yl)acetamide] | ≤ 0.01 | 0.01 to 0.1 |
| COc1ccnc(COc2cnc(NC(C)=O)cc2Nc2cc(C)nc(C(C)(F)F)n2)n1 [Example 345, N-(4-((2-(1,1-difluoroethyl)-6-methylpyrimidin-4-yl)amino)-5-((4-methoxypyrimidin-2-yl)methoxy)pyridin-2-yl)acetamide] | 0.01 to 0.1 | 0.1 to 1 |
| COc1cc(COc2cnc(NC(C)=O)cc2Nc2cc(C)nc(C(C)(F)F)n2)ncn1 [Example 346, N-(4-((2-(1,1-difluoroethyl)-6-methylpyrimidin-4-yl)amino)-5-((6-methoxypyrimidin-4-yl)methoxy)pyridin-2-yl)acetamide] | ≤ 0.01 | 0.01 to 0.1 |
| CC(=O)Nc1cc(Nc2cc(OC3CC3)nc(C(C)(F)F)n2)c(OCc2ccccn2)cn1 [Example 348, N-(4-((6-cyclopropoxy-2-(1,1-difluoroethyl)pyrimidin-4-yl)amino)-5-(pyridin-2-ylmethoxy)pyridin-2-yl)acetamide] | ≤ 0.01 | 0.01 to 0.1 |
| CC(=O)Nc1cc(Nc2cc(OC3CC3)nc(C(C)(F)F)n2)c(OCc2ccc(F)c(F)c2)cn1 [Example 349, N-(4-((6-cyclopropoxy-2-(1,1-difluoroethyl)pyrimidin-4-yl)amino)-5-((3,4-difluorobenzyl)oxy)pyridin-2-yl)acetamide] | ≤ 0.01 | ≤ 0.01 |
| CC(=O)Nc1cc(Nc2cc(OC3CC3)nc(C(C)(F)F)n2)c(O[C@H]2C[C@H](F)C2)cn1 [Example 352, N-(4-((6-cyclopropoxy-2-(1,1-difluoroethyl)pyrimidin-4-yl)amino)-5-((1r,3r)-3-fluorocyclobutoxy)pyridin-2-yl)acetamide] | ≤ 0.01 | 0.01 to 0.1 |
| CC(=O)Nc1cc(Nc2cc(C)nc(C(C)(F)F)n2)c(OCc2cnn(C3CCC3)c2)cn1 [Example 354, N-(5-((1-cyclobutyl-1H-pyrazol-4-yl)methoxy)-4-((2-(1,1-difluoroethyl)-6-methylpyrimidin-4-yl)amino)pyridin-2-yl)acetamide] | ≤ 0.01 | 0.1 to 1 |
| CC(=O)Nc1cc(Nc2cc(C)nc(C(C)(F)F)n2)c(OCc2cccnc2)cn1 [Example 355, N-(4-((2-(1,1-difluoroethyl)-6-methylpyrimidin-4-yl)amino)-5-(pyridin-3-ylmethoxy)pyridin-2-yl)acetamide] | ≤ 0.01 | 0.01 to 0.1 |
